This note sets out measurements from patent US7485619B2, “Antimicrobial agent” (priority 2005, dated 2009).

Where two headings read alike, the source gives them in different places. No end group written: not given here.

The subject of assay [1] is methicillin-resistant Staphylococcus aureus (ATCC 700698). It counts as cell-based. As for the experimental part:
(§1) E. coli (ATCC 20922) (5×10^5 cells) in 100 μL of 10 mM Phosphate Buffer, pH 7.0 containing mucocidin peptide concentration of 5, 10, 15, 20, or 50 μM was incubated for an hour. Then, it was diluted 200 fold with the same buffer and 300 μL aliquots (approx. 750 cells) were plated on 150 mm LB plate and grown overnight at 37° C. The grown colonies were counted. The cell viability was estimated by the percent of colony forming units. Staphylococcus aureus (ATCC 25923) and methicillin resistant Staphylococcus aureus (MRSA) (ATCC 700698) were incubated with mucocidin concentration up to 5 μM. Candida albicans (ATCC 10231) were incubated with mucocidin concentration levels up to 50 μM^44.

For assay [2], the system named is Staphylococcus aureus (ATCC 25923). Format: cell-based. The conditions noted are these: for bactericidal activity (in words): Table 1. The protocol: (§2) FIGS. 2A-2C show antimicrobial activity of mucocidin. (A) The growth rate of E. coli (0.5×10^3) containing pBluescript SK plasmid with mucocidin cDNA insert and the control E. coli containing plasmid alone in 20 ml LB broth cultured for 5 days. Cell growth was monitored by Absorbance at 600 nm (A600). Induction of vector expression by 20 μL isopropyl-B-D-thiogalactopyranoside (IPTG 1 mM) is on the bottom line. Each point represents average of five experiments. (B) Bactericidal activity of synthetic mucocidin peptide was measured by the percent colony formation units of E. coli and Staphylococcus aureus. Cells (5×10^5) were cultured in 100 μL in IB broth containing 0, 5, 10, 20 μM concentration of mucocidin. After one hour, cell viability was determined by plating 300 μL aliquots of the 200 fold diluted cultured cell broth on LBA or TSA plates, respectively. […] (C) Scanning electron micrographs of E. coli, Staphylococcus aureus and Candida albicans incubated with 10, […] mucocidin, respectively for 10, 20 and 30 min, and they were immediately fixed with glutaraldehyde, dried on the Millipore membrane, and coated with gold. […] All photographs were taken at the same magnification. Scale bar, 1 μm.
as §1
Bactericidal activity of various deletion peptides of mucocidin (PeptRon, Korea) was compared with the activity of Magainin II (23 mer) peptide (Table 1). […] Also first 15 residue peptide likely functions as propeptide and native peptide will likely have 31 residues.

Assay [3] has as its system P. aeruginosa (ATCC #9027). Nature of the assay: USP Antimicrobial Test. It counts as cell-based. The conditions noted are these: three log dilution. From the text: (§3) The mucocidin (Microtest Laboratories Test sample #05-03383) met the requirement of the USP Validation of Microbial Recovery.
In the next assay the test system is S. aureus (ATCC #6538). As to the kind of experiment: USP Antimicrobial Test. Format: cell-based. The conditions noted are these: three log dilution.
Source text: as §3

The subject of assay [4] is Candida albicans (ATCC #10231). Nature of the assay: USP Antimicrobial Test. Format: cell-based. The conditions noted are these: three log dilution.
Source text: as §3

Assay [5] deals with Aspergellous niger (ATCC #16404). Nature of the assay: USP Antimicrobial Test. It counts as cell-based. The conditions noted are these: three log dilution.
Source text: as §3

In the next assay the test system is E. coli (ATCC #8739). As to the kind of experiment: USP Antimicrobial Test. The conditions noted are these: three log dilution. It counts as cell-based.
Source text: as §3

Assay [6] concerns the target T1, guinea pig liver transglutaminase (UniProt P08587).
T1 construct: using guinea pig liver transglutaminase (Sigma, St. Luois, Mo.); purchased Sigma; host or cells: guinea pig liver
As to the kind of experiment: Mucocidin as transglutaminase substrate, monodansylcadaverine incorporation. Format: biochemical. The conditions noted are these: 50 μM mucocidin, 10 μM MDC; 20, 40, 60, 120 min; with or without Ca++. The protocol: Mucocidin as a transglutaminase substrate was carried out by a slightly modified method of previously described^27 using guinea pig liver transglutaminase (Sigma, St. Luois, Mo.). Transglutaminase assay was carried out by adding 10 μl of enzyme (10 μg) into 90 μL of reaction mixture containing 0.05 M tris acetate buffer, pH 8.0,1 mM EDTA, 5 mM dithiothreitol, 10 mM CaCl2, 0.2% lubrol, and 10 μM of monodansylcadaverine (MDC)(Sigma) and mucocidin (50 μM). Ten μL aliquot of the reaction mixture was removed at 20, 40, 60 and 120 min and added into 500 μL volume of 1 mM EDTA solution to halt the enzyme reaction. Unreacted MDC in solution was extracted with n-hexane. The reacted mucocidin in aqueous solution was blotted on a cellulose nitrate membrane in a slot filtering apparatus (Bio Rad Lab) and washed once with 0.5 mL of water. Relative fluorescence was indicated as a measure of MDC incorporated mucocidin. The aliquots taken from each sample was analyzed on SDS-PAGE.
These immunological staining of the mucosal epithelium indicate that mucocidin is expressed in the outer layers of epithelium and the secreted peptide remains bound to the epithelial surface. […]

In assay [7] the test system is Candida albicans (ATCC 10231). Format: cell-based. The protocol:
as §1

Assay [8] deals with E. coli. Nature of the assay: Scanning electron micrography of microbes treated with mucocidin. It counts as cell-based. The conditions noted are these: 10 μM mucocidin; 10, 20 and 30 min. The protocol: as §2
(§4) Scanning Electron Micrographs were taken of E. coli, Staphylococcus aureus and Candida albicans incubated with 10, 40, 100 μM mucocidin, respectively for 10, 20 and 30 min, and they were immediately fixed with glutaraldehyde, dried on Millipore membrane, and coated with gold. […] All photographs were taken at the same magnification.
(§5) The primary growth of E. coli containing the mucocidin peptide was inhibited in a dose-dependent manner (FIG. 2B). […] To explore a possible mechanism of mucocidin elicited bactericidal activity, the progress of morphological alteration of microbes upon the treatment of mucocidin was determined by scanning electron Microscopy. E. coli, Staphylococcus aureus and Candida albicans (FIG. 2C) incubated with 10, 40, 100 μM mucocidin, respectively for various time periods, were immediately fixed, dried, and coated with gold. […]

A further assay relates to Staphylococcus aureus. Described as above. It counts as cell-based. The conditions noted are these: 40 μM mucocidin; 10, 20 and 30 min. The protocol: as §2, §4, §5
A further assay relates to Candida albicans. Described as above. The conditions noted are these: 100 μM mucocidin; 10, 20 and 30 min. It counts as cell-based. The protocol:
as §2, §4, §5

Another assay relates to E. coli (ATCC25922). Format: cell-based. The conditions noted are these: for decrease of colony forming unit (CFU) percentages: one hour incubation. The protocol: as §2, §1
A short description of assay [9]: Bacteriocidal activity of salivary mucocidin fractions. The conditions noted are these: both Superose 12 peak fractions. It counts as cell-based. The protocol:
Thirty milliliters of parotid saliva from each volunteer was collected into the tube containing 1.0 ml of 0.25 M citrate buffer, pH 4.0 containing 0.02% NaN3. The 10 ml acidified saliva was adsorbed into SP-Sepharose column (2.4×6 ml) equilibrated with 0.025 M citrate buffer pH 4.0, the column was washed with 3 fold column volume each of the equilibrating buffer and the 0.05 M tris-acetate buffer pH 6.0 containing 1 mM EDTA. The mucocidin was eluted with the 0.05 M tris-acetate buffer, pH 6.0 containing 0.15 M NaCl. The eluted mucocidin containing fractions assayed by immunodot blot analysis were pooled and concentrated in Speed-vac centrifuge evaporation apparatus. Pooled mucocidin fractions were applied to Superose 12 column equilibrated with 0.02 M tris-acetate buffer pH 6.0. Two of the mucocidin peaks were detected first at 8 kDa molecular weight marker and next far beyond the column volume.

Assay [10] has as its system E. coli. As to the kind of experiment: Antimicrobial activity of isolated native salivary mucocidin. It counts as cell-based. The conditions noted are these: data not shown.

T1 sequence (P08587 whole entry): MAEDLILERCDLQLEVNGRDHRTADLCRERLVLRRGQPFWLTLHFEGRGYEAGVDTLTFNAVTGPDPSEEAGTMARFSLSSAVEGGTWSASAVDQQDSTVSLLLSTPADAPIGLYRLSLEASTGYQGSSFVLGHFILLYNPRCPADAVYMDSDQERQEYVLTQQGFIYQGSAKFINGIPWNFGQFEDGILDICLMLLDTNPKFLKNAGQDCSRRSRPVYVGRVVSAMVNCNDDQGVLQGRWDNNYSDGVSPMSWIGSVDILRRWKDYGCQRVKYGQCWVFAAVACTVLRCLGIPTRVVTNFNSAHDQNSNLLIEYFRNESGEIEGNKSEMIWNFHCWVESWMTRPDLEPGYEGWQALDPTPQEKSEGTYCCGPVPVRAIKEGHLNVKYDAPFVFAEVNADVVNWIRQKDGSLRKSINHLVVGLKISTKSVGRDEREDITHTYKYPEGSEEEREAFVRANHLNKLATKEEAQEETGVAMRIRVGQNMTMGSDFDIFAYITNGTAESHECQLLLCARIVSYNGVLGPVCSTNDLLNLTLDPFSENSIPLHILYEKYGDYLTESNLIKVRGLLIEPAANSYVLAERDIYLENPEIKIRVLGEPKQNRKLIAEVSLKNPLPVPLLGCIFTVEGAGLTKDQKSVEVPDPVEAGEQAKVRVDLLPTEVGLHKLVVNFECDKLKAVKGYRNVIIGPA

As for `CC1(C)S[C@@H]2[C@H](NC(=O)[C@H](N)c3ccccc3)C(=O)N2[C@H]1C(=O)O` [ampicillin, reference compound], the “sensitivity of methicillin-resistant Staphylococcus aureus (in words)” value in assay [1] is reported as “insensitive”.
As for “ATSSVSSRVLNRSLQVKVVKITN [Peptide 23-mer-C]”, the “S. aureus (MBC, μM)” value in assay [2] (ATCC 25923) is above 10.0 µM. For the same molecule, the “growth of the organism” value (in assay [3]; in the assay with S. aureus (ATCC #6538); in assay [4]; in assay [5]; in the assay on E. coli (ATCC #8739)) was “almost no growth” in each case.
As to “EYIYNSACSVLSATSSVSSRVLNRSLQVKVVKITN [Peptide 35-mer]”, the “S. aureus (MBC, μM)” value in assay [2] (ATCC 25923) was above 50.0 µM.
In the case of “GIGKFLHSAKKFGKAFVGEIMNS [Magainin II, reference compound]”, the “S. aureus (MBC, μM)” value in assay [2] (Table 1, deletion peptides) is above 3.0 µM.
Regarding “MHDFWVLWVLLEYIYNSACSVLSATSSVSSRVLNRSLQVKVVKITN [Peptide 46-mer]”, in [6], the “time-dependent uptake of MDC into mucocidin” value is “detected only in the presence of Ca^++”. The “S. aureus (MBC, μM)” value in assay [2] (ATCC 25923) is above 70.0 µM. Further, the “minimal bactericidal concentration (MBC)” value turned out to be 3 ± 0.5 µM in [2] (ATCC 25923), 50 ± 10.9 µM in [1], 80 ± 13.5 µM in assay [7] and 40 ± 7.3 µM in the assay with E. coli (ATCC25922) (ATCC25922). For the same molecule, the “sensitivity of primary growth of Staphylococcus aureus relative to E. coli” value in [2] (S. aureus versus E. coli) is given as “ten fold more sensitive”. The “bactericidal activity (in words)” value in assay [2] was “good bactericidal activity”. Besides, in assay [1], the “sensitivity of methicillin-resistant Staphylococcus aureus (in words)” value is listed as “very sensitive to low concentrations”. The “morphology of the microbe by SEM” value with E. coli [8] is “loss and shrinkage of original cell shapes”; with Staphylococcus aureus, “loss and shrinkage of original cell shapes”; in the assay with Candida albicans, “loss and shrinkage of original cell shapes”. For the same molecule, the “decrease of colony forming unit (CFU) percentages” value was 20% in the assay on E. coli (ATCC25922) (5 μM mucocidin), 40% with E. coli (ATCC25922) (10 μM mucocidin), 50% with E. coli (ATCC25922) (15 μM mucocidin) and 60% with E. coli (ATCC25922) (20 μM mucocidin).
Turning to “M^1HDFWVLWVLLEYIYNSACSVLS^23 (MHDFWVLWVLLEYIYNSACSVLS; listed as Homo sapiens) [Peptide 23-mer-N, mucocidin residues 1-23]”, in assay [2], the “bactericidal activity (in words)” value was “no activity”.
Take “SRVLNRSLQVKVVKITN [Peptide 17-mer, SRVLNRSLQVKVVKITN]”: in assay [2] (ATCC 25923), the “S. aureus (MBC, μM)” value is above 5.0 µM.
The same measure, in the same setting: the result for SSVSSRVLNRSLQVKVVKITN [Peptide 21-mer] reads above 3.5 µM; that for “VLNRSLQVKVVKITN [Peptide 15-mer, VLNRSLQVKVVKITN]”, above 20.0 µM.
Consider “VSSRVLNRSLQVKVVKITN [Peptide 19-mer, VSSRVLNRSLQVKVVKITN]”, for which, in [2] (ATCC 25923), the “S. aureus (MBC, μM)” value was above 3.5 µM.
For “isolated native salivary mucocidin: glycosylated native mucocidin isolated from human parotid saliva by ion exchange and Superose 12 chromatography (MHDFWVLWVLLEYIYNSACSVLSATSSVSSRVLNRSLQVKVVKITN; also: glycosylated, sites not given here)”, in assay [9], the bacteriocidal activity result is listed as “bacteriocidal activity similar to mucocidin peptides”. Also, the “antimicrobial activity against E. coli” value with E. coli [10] was “retained antimicrobial activity”.
